These results are taken from patent publication US12208093B2 (THE JOHNS HOPKINS UNIVERSITY, priority 2016, dated 2025).

The subject of one series is protein synthesis. The note with it: at concentration that inhibit CMV replication in vitro; cited from earlier work.
Another series concerns the target RPS14 (Homo sapiens, UniProt P62263). Briefly: Confocal microscopy of RPS14 localization. It is filed as cell-based. The note with it: 24 hpi; infected cells; emetine 75 nM.
For series [1], the system named is pp28-luciferase HCMV Towne. Put plainly: Second cycle luciferase assay. The note with it: emetine 75 nM, vs infected control. It is filed as cell-based, human cytomegalovirus (HCMV). The text has this:
(§1) Cell culture, virus infection and anti-viral assays.

In series [2] the test system is HCMV in RPS14 knockdown cells. It is filed as cell-based, human cytomegalovirus (HCMV). The note with it: contact-inhibited RPS14 knockdown cells; luciferase first and second cycle, pp65 at 72 hpi; dihydrochloride hydrate.
A short description of another series: in vivo. The method, then:
Pharmacokinetics and CMV inhibition in mice. […] The dosing solution was prepared in saline with a dosing volume of 10 mL/kg. Blood and tissue samples including liver, lung and spleen were collected at 0, 0.083, 0.25, 0.5, 0.75, 1, 2, 3, 4, 7, 24, 30, 48, 72 and 96 hr. […] Pharmacokinetic parameters (Cmax, Tmax, AUC and t1/2) were calculated with a non-compartmental approach using the Pharsight WinNonLin software (Ver. 6.4). The experimental procedures were approved by the Animal Care and Use Committee of Division of Veterinary Resources, NIH.

For series [3] the following is noted: human; cited from earlier work.
The next series relates to HCMV Towne. Put plainly: HCMV Towne plaque reduction assay in HFFs. It is filed as cell-based, human cytomegalovirus (HCMV).
From the text: as §1
Background: In a plaque reduction assay, fewer plaques than in the control indicate reduced infectivity or spread.

Another series concerns MCMV. Briefly: MCMV infection model in BALB/c mice. It is filed as in vivo, Murid Herpesvirus (MCMV) in BALB/c mice. How it is done: Control mice received 0.1 ml of saline intraperitoneally. […] Control and infected mice received equivalent volumes of saline. […] Mice were sacrificed at day 14 after infection. Blood samples were collected by cardiac puncture. […] Two million MEFs were seeded into 24 well plates. […] Plaques were counted after three days. […] The gB primers were: F: 5′ […] 3′ (SEQ ID NO:1); R: 5′ […] 3′(SEQ ID NO:2) (43).

For series [4], the system named is HCMV proteins IE1/2, UL44 and pp65. Briefly: Western blot of HCMV protein expression. The note with it: 72 hpi. It is filed as cell-based, human cytomegalovirus (HCMV). An excerpt:
(§2) SDS-polyacrylamide gel electrophoresis and immunoblot analysis. Cell lysates were quantified for protein content using bicinchoninic acid (BCA) protein assay kit (Pierce Chemical, Rockford, IL). Equivalent amount of proteins were used for Western blot analysis as described previously. Protein bands were visualized by chemiluminescence using Western Blotting Luminol Reagent (Santa Cruz Biotechnology, Santa Cruz, CA). The following antibodies were used for detection of HCMV proteins: mouse anti-IE1 and IE2, (MAb810); mouse anti-UL44 (Santa Cruz biotechnology Santa Cruz, CA); mouse monoclonal anti-pp65 (Vector laboratories, Burlingame, CA); mouse monoclonal anti-β-actin antibody (Millipore, Billerica, MA); rabbit polyclonal anti-RPS14 and mouse monoclonal anti-MDM2 (AbCam, Cambridge, UK), mouse monoclonal anti-p53 (Santa Cruz, CA); horseradish peroxidase (HRP)-conjugated goat anti-rabbit IgG (Cell Signaling); and HRP-conjugated sheep anti-mouse IgG, (GE Healthcare, Waukesha, WI). For detection of co-immunoprecipitated proteins, protein A-HRP conjugate (Cell Signaling Technologies, Beverly, MA) was used as secondary antibody to eliminate the interfering IgG bands.

The target of the next series is T1, RPS14 and MDM2 (Homo sapiens, UniProt P62263+Q00987).
T1 construct: endogenous in cells; host or cells: Human foreskin fibroblasts (HFFs, ATCC CRL-2088), infected with HCMV Towne
Briefly: Co-immunoprecipitation of RPS14 and MDM2; RPS14 expression and ubiquitination. It is filed as cell-based.
From the text: as §2
Co-immunoprecipitation (IP) and immunoblotting. Non-infected, infected or emetine-treated HFFs were treated with MG132 (10 μM) for 12 h. […] 1 mg of lysate was precleared with bead slurry for 30 min. The precleared lysates were incubated with anti-MDM2 (2 μg) antibody overnight. The antibody complexes were isolated using protein A/G beads (Santa Cruz), washed three times with 50% IP buffer. The immunoprecipitate—protein A/G beads were boiled in SDS sample buffer, and the supernatant was analyzed on SDS-PAGE gels after immunoblotting as described previously. […] Reverse IPs were performed by pulling down the precleared lysates with either anti-p53 antibody or anti-RPS14 antibody and detected with MDM2. […] In other experiments, transfected or treated HEK293 cell lysates were pulled-down with anti-IE2 antibody and detected with anti-MDM2 antibody and vice-versa for reverse IP.

Series [5] relates to pp28-luciferase HCMV Towne. Put plainly: Add on and removal studies. The note with it: luciferase at 72 hpi. It is filed as cell-based, human cytomegalovirus (HCMV). The method, then:
Add on and removal studies. […] For time-of-removal studies, the medium containing the compounds was removed at 0, 6, 12, 24, 36 and 48 hpi, cells were washed three times with phosphate-buffered saline (PBS), and drug-free medium was added. Luciferase activity was determined at 72 hpi.

The next series deals with HCMV entry. Put plainly: Virus entry immunofluorescence assay for pp65. It is filed as cell-based. The settings on record: emetine 75 nM, GCV 10 μM, CpG 2006 10 μM; added 24 h prior to infection; dihydrochloride hydrate. How it is done: Immunofluorescence. […] Compounds were diluted in serum-free medium and added to HFFs seeded on chamber slides 24 h prior to infection. After infection and treatment, cells were fixed, permeabilized, and air-dried. Cells were then incubated with mouse monoclonal anti-pp65 antibody at 37° C. in humidified chambers for 1 h, washed three times with 0.1% Tween 20 in PBS (PBST), incubated with rhodamine conjugated anti-mouse IgG (Sigma Chemical Co) at 37° C. in humidified chambers for 1 h, and washed with PBST (0.1% Tween 20). A drop of mount oil containing DAPI (4,6-diamidino-2-phenylindole) (Santa Cruz) was added to the slides before visualization with a Nikon Eclipse E-800 fluorescence microscope.

Entries after “also recorded” stand apart in the source; their conditions may differ. Structures can show the parent of a compound that is named as a salt. Where two headings read alike, the source gives them in different places.

As to `CC[C@H]1CN2CCc3cc(OC)c(OC)cc3[C@@H]2C[C@@H]1C[C@H]1NCCc2cc(OC)c(OC)cc21` [emetine, emetine dihydrochloride hydrate], the tolerability in mice entry is “well-tolerated”. In addition, the “inhibition of protein synthesis” value with protein synthesis is “no inhibition of protein synthesis”. Further, at RPS14, the RPS14 localization result was “induced RPS14 translocation into the nucleus”. For the same molecule, in [1] (0.5 million cells/plate, p>0.5), the “increase in pp28-luciferase activity, second cycle infection” value stood at 1.5 fold. Besides, in series [1] (1 million cells/plate, p<0.001), the “reduction in pp28-luciferase activity, second cycle infection” value came to 1.5 fold. In addition, the “pp28-luciferase activity, second cycle infection” value in [1] (2 million cells/plate, p<0.001) is given as “almost complete inhibition”. The “HCMV inhibition in RPS14 knockdown cells” value in series [2] is reported as “unable to inhibit HCMV; also recorded: loss of HCMV inhibition”. In addition, the Cmax – broadly, the peak of the concentration-time curve – in “in vivo” (male, BALB/c, mouse, in vivo, 0.1 mg/kg) came to 1.4 ng/mL. Besides, the half-life (usually how long it takes for the measured level to halve) in “in vivo” (male, BALB/c, mouse, in vivo, ip, 0.1 mg/kg, half-life, single intraperitoneal administration 0.1 mg/kg, mice) was 32 h. The half-life in “in vivo” (male, BALB/c, mouse, in vivo, po, 1 mg/kg, half-life, single oral administration 1 mg/kg, male BALB/c mice) is 32 h. For the same molecule, in “in vivo” (single oral administration 1 mg/kg, male BALB/c mice, dihydrochloride hydrate, 1 mg/kg), the half-life turned out to be 24 h. The half-life in series [3] is 24 to 48 h. Further, the “inhibition of HCMV by plaque reduction assay” value in the series on HCMV Towne is “further confirmed”. The “reduction in the number and size of plaques” value in the series on HCMV Towne (2 million cells/plate (p<0.001) as compared to 0.5 million cells/plate, emetine 75 nM) was found to be 30 fold. Further, in the series with MCMV (oral every 72 h / three days, low dose 0.1 mg/kg, dihydrochloride hydrate, 0.1 mg/kg), the “MCMV inhibition in mice” value is recorded as “inhibited; also recorded: high efficacy; also recorded: inhibits mouse CMV replication; also recorded: effectively suppressed MCMV”. In addition, the “difference in efficacy between 0.1 and 1 mg/kg” value in the series on MCMV (oral, every three days) was “no significant difference”. In addition, the “expression of HCMV proteins IE1/2, UL44 and pp65” value in [4] was “significantly reduced”. Further, in series [4] (emetine 75 nM, vs infected untreated cells, not at lower cell density), the “viral UL44 and pp65 expression at high cell density” value is recorded as “significant reduction”. Besides, the “interaction between RPS14 and MDM2” value on RPS14 and MDM2 (24 hpi, contact-inhibited infected cells, not cycling cells, MG132 present) is “strongly induced”. For the same molecule, the “HCMV-induced RPS14 expression” value on RPS14 and MDM2 (72 hpi, contact-inhibited infected cells, emetine 75 nM) is reported as “reduced”. For the same molecule, the “ubiquitinated RPS14” value on RPS14 and MDM2 (72 hpi, only in contact-inhibited cells, MG132) is on record as “increased”. Also, the “time of addition after which activity against HCMV replication is lost” value in [5] (add-on) was over 12 h. In addition, the “time compound is required to fully inhibit HCMV” value in [5] (removal assay) is reported as “at least 24 h”. Further, the “inhibition of viral entry” value with HCMV entry is given as “neither emetine nor GCV inhibited viral entry; also recorded: does not inhibit”.
